The values below are quoted from earlier work in US20170135989A1, “ALLISARTAN ISOPROXIL SOLID DISPERSION AND PHARMACEUTICAL COMPOSITION” (SHENZHEN SALUBRIS PHARMACEUTICALS CO., LTD, priority 2014, published 2017).

The conditions of data set [1]: from CN200680000397.8.
For data set [2], the target named is T1, angiotensin II receptor (Homo sapiens, UniProt P30556).
T1 sequence (P30556 1-359): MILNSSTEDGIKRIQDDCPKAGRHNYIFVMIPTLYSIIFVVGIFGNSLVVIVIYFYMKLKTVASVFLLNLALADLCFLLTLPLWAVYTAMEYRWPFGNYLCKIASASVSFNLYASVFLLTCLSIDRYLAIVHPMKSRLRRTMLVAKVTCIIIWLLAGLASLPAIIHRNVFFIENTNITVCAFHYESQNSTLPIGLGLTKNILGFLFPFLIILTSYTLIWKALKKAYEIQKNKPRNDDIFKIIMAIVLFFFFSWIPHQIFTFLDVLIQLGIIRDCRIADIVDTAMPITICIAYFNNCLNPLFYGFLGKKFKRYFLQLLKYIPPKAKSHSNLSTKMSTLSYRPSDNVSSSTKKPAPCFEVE
Particulars: from CN200680000397.8; compared with products of the same type (such as losartan).

For the molecule `CCCCc1nc(Cl)c(C(=O)OCOC(=O)OC(C)C)n1Cc1ccc(-c2ccccc2-c2nnn[nH]2)cc1` [Allisartan isoproxil, 2-butyl-4-chloro-1-[2′-(1H-tetrazol-5-yl)-1,1′-biphenyl-methyl]-imidazole-5-carboxylic acid, 1-[(isopropoxy)-carbonyloxy]-, methyl ester], the Solubility in water result is reported as “low”. Besides, the Toxicity entry in data set [1] was “low toxicity”. Also, in data set [2], the Antihypertensive effect entry is “better antihypertensive effect than products of the same type”.
